Where two headings read alike, the source gives them in different places. Starred links: 1 amine or outer side, 2 acyl side, 3 side chain; linkers in the order of their positions; H or OH if unused. Non-standard residues stand in square brackets, D forms with d. Residues, ends and D or L forms follow the SMILES beside them. Groups on a side chain read outwards from the residue. *: point of attachment. γGlu = O=C(O)[C@H](CCC(=O)[*:2])N[*:1]; Palmitoyl = CCCCCCCCCCCCCCCC(=O)*
Key:
human GCGR = molecular target: T1, human GCGR (Homo sapiens, UniProt P47871); test: cAMP activity assay (HitHunter cAMP XS), cells expressing human GCGR; assay type: cell-based; details: for EC50: read-out: EC50 hGCGR
T1 construct: expressed in transfected cells
T1 sequence (P47871 26-477): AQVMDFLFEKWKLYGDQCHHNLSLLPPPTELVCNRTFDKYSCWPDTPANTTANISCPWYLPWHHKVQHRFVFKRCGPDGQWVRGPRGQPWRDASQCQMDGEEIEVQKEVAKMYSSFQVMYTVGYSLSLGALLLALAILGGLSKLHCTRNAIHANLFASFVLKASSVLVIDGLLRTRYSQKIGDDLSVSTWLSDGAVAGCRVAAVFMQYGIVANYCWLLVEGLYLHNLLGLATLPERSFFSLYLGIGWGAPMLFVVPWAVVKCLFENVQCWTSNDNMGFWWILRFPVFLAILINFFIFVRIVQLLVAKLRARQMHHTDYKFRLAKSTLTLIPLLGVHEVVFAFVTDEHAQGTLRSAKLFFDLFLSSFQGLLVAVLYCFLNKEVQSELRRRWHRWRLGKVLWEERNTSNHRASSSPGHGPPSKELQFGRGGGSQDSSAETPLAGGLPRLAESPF
How it was run: (§1)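 Peptides tested as 10-point DMSO titrations on assay-ready frozen cells (30,000 cells/well for GCGR; 10,000 cells/well for GLP1R), 1 hour at room temperature in the dark. cAMP detected with HitHunter cAMP XS kit after overnight incubation at room temperature, luminescence read-out. EC50 from 4-parameter logistic fit.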

human GLP1R = molecular target: T2, human GLP1R (Homo sapiens, UniProt P43220); test: cAMP activity assay (HitHunter cAMP XS), cells expressing human GLP1R; assay type: cell-based
T2 construct: expressed in transfected cells
T2 sequence (P43220 24-463): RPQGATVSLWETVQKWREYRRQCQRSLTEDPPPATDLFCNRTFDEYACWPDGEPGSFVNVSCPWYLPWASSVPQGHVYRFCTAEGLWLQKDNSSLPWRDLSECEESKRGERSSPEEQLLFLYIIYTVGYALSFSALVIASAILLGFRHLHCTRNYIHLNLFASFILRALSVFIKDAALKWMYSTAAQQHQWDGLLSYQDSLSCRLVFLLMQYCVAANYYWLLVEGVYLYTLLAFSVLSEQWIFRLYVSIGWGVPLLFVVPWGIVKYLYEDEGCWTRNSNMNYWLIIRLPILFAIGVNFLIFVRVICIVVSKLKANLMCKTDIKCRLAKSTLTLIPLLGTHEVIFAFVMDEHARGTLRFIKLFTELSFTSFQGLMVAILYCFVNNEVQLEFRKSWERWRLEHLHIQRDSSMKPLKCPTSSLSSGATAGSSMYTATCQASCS
How it was run: as §1

[1] = Table 2, cAMP production, read-out: EC50 hGLP1R

Structure (SMILES) | EC50 (human GCGR; Table 2, cAMP production) | EC50 (human GLP1R; [1]) | Ratio (human GCGR; Table 7, EC50 hGCGR divided by EC50 hGLP1) | EC50 (human GCGR; Table 7, lipidated analogs vs parental peptides) | EC50 (human GLP1R; Table 7, lipidated analogs vs parental peptides, read-out: EC50 hGLP1)
CC(C)C[C@H](NC(=O)[C@H](CC(C)C)NC(=O)[C@H](Cc1c[nH]c2ccccc12)NC(=O)[C@H](CCC(N)=O)NC(=O)[C@@H](NC(=O)[C@H](Cc1ccccc1)NC(=O)[C@H](CC(=O)O)NC(=O)[C@H](CCC(N)=O)NC(=O)[C@H](C)NC(=O)[C@H](CCCNC(=N)N)NC(=O)[C@H](CCCNC(=N)N)NC(=O)[C@H](CO)NC(=O)[C@H](CC(=O)O)NC(=O)[C@H](CC(C)C)NC(=O)[C@H](Cc1ccc(O)cc1)NC(=O)[C@H](CCCCN)NC(=O)[C@H](CO)NC(=O)[C@H](Cc1ccc(O)cc1)NC(=O)[C@H](CC(=O)O)NC(=O)[C@H](CO)NC(=O)[C@@H](NC(=O)[C@H](Cc1ccccc1)NC(=O)[C@@H](NC(=O)CNC(=O)[C@H](CCC(N)=O)NC(=O)[C@H](CO)NC(=O)[C@@H](N)Cc1c[nH]cn1)[C@@H](C)O)[C@@H](C)O)C(C)C)C(=O)N[C@@H](CC(N)=O)C(=O)N[C@@H](CCC(N)=O)C(N)=O [PD57] | 0.02 nM | 0.01 nM | – | – | –
CCCCCCCCCCCCCCCC(=O)N[C@@H](CCC(=O)N[C@@H](CCC(=O)NCCCC[C@H](NC(=O)[C@H](CC(=O)O)NC(=O)[C@H](CO)NC(=O)[C@@H](NC(=O)[C@H](Cc1ccccc1)NC(=O)[C@@H](NC(=O)CNC(=O)[C@H](CCC(N)=O)NC(=O)[C@@H](CO)NC(=O)[C@@H](N)Cc1c[nH]cn1)[C@@H](C)O)[C@@H](C)O)C(=O)N[C@@H](CO)C(=O)N[C@@H](CCCCN)C(=O)N[C@@H](Cc1ccc(O)cc1)C(=O)N[C@@H](CC(C)C)C(=O)N[C@@H](CC(=O)O)C(=O)N[C@@H](C)C(=O)N[C@@H](CCCNC(=N)N)C(=O)N[C@@H](C)C(=O)N[C@@H](C)C(=O)N[C@@H](Cc1c[nH]cn1)C(=O)N[C@@H](CC(=O)O)C(=O)N[C@@H](Cc1ccccc1)C(=O)N[C@H](C(=O)N[C@@H](CCC(N)=O)C(=O)N[C@@H](Cc1c[nH]c2ccccc12)C(=O)N[C@@H](CC(C)C)C(=O)N[C@@H](CC(C)C)C(=O)N[C@@H](CC(N)=O)C(=O)N[C@H](C(N)=O)[C@@H](C)O)C(C)C)C(=O)O)C(=O)O [TP559] (H-H[dS]QGTFTSDK([γGlu-γGlu-Palmitoyl])SKYLDARAAHDFVQWLLNT-NH2) | – | – | 0.4 | 0.02 nM | 0.05 nM
CC(C)C[C@H](NC(=O)[C@H](CC(C)C)NC(=O)[C@H](Cc1c[nH]c2ccccc12)NC(=O)[C@H](CC(=O)O)NC(=O)[C@@H](NC(=O)[C@H](Cc1ccccc1)NC(=O)[C@H](CC(=O)O)NC(=O)[C@H](CCC(N)=O)NC(=O)[C@H](C)NC(=O)[C@H](CCCNC(=N)N)NC(=O)[C@H](CCCNC(=N)N)NC(=O)[C@H](CO)NC(=O)[C@H](CC(=O)O)NC(=O)[C@H](CC(C)C)NC(=O)[C@H](Cc1ccc(O)cc1)NC(=O)[C@H](CCCCN)NC(=O)[C@H](CO)NC(=O)[C@H](Cc1ccc(O)cc1)NC(=O)[C@H](CC(=O)O)NC(=O)[C@H](CO)NC(=O)[C@@H](NC(=O)[C@H](Cc1ccccc1)NC(=O)[C@@H](NC(=O)CNC(=O)[C@H](CCC(N)=O)NC(=O)[C@H](CO)NC(=O)[C@@H](N)Cc1c[nH]cn1)[C@@H](C)O)[C@@H](C)O)C(C)C)C(=O)N[C@@H](CC(N)=O)C(=O)N[C@@H](C)C(N)=O [PD48] | 0.07 nM | 0.02 nM | – | – | –

— patent US10493125B2 (Merck Sharp & Dohme Corp., priority 2015, dated 2019)
